These are literature values, as cited in patent EP3156049A1, “PHARMACEUTICAL COMPOSITION OF PRASUGREL” (Alembic Pharmaceuticals Limited, priority 2015, dated 2017).

Each structure is given as a SMILES string. Where two headings read alike, the source gives them in different places.

As to `CC(=O)Oc1cc2c(s1)CCN(C(C(=O)C1CC1)c1ccccc1F)C2.Cl` (racemic) [Prasugrel hydrochloride, 5-[(1RS)-2-cyclopropyl-1-(2-fluorophenyl)-2-oxoethyl]-4,5,6,7-tetrahydrothieno [3,2-c] pyridin-2-yl acetate hydrochloride], the Solubility result runs as follows: (pH 2) “soluble”; (pH 3 to 4) “slightly soluble”; (pH 6 to 7.5) “practically insoluble”.
